# Assay results published in ChEMBL document CHEMBL4627289, “Design, synthesis and evaluation of unnatural peptides as T1R2/T1R3 PAMs” (Bioorg Med Chem Lett, 2020).
# Target: T1R2/T1R3 (Homo sapiens) (UniProt Q8TE23+Q7RTX0)
# Assay: Positive allosteric modulation of human TIR2/TIR3 expressed in PEAKrapid cells assessed as potentiation of sucrose-induced intracellular calcium influx by measuring sucrose EC50 at 30 uM measured for 120 secs by fluorescence based assay relative to FEMA4774
# Type: functional, cell-based
row,Efficacy,Compound
1,85%,CC(C)(CC(=O)Nc1cncc(C(=O)O)c1N)NC(=O)CC1CCCCC1
2,73%,CC(C)C[C@H](N)C(=O)NC(C)(C)CC(=O)Nc1cncc(C(=O)O)c1N
3,80%,CC(C)(CC(=O)Nc1cncc(C(=O)O)c1N)NC(=O)CC1(CN)CCCCC1
4,55%,CC(C)(CC(=O)Nc1cncc(C(=O)O)c1N)NC(=O)[C@H]1CC[C@H](N)CC1
5,96%,CC(C)(CC(=O)Nc1cncc(C(=O)O)c1N)NC(=O)[C@@H](N)C1CCCCC1
6,61%,CC(C)(CC(=O)Nc1cncc(C(=O)O)c1N)NC(=O)[C@@H](N)c1ccccc1
7,61%,CC(C)[C@H](N)C(=O)NC(C)(C)CC(=O)Nc1cncc(C(=O)O)c1N
8,77%,CC(C)C[C@H](NC(=O)[C@@H](N)C1CCCCC1)C(=O)NC(C)(C)CC(=O)Nc1cncc(C(=O)O)c1N
9,56%,CC(C)(CC(=O)Nc1cncc(C(=O)O)c1N)NC(=O)c1cccc(N)c1
10,79%,CC(C)(CC(=O)Nc1cncc(C(=O)O)c1N)NC(=O)CC1CCCC1
11,71%,CC(C)(CC(=O)Nc1cncc(C(=O)O)c1N)NC(=O)C1CCCCC1
12,59%,CC(C)(CC(=O)Nc1cncc(C(=O)O)c1N)NC(=O)[C@H](N)C1CCCCC1
13,55%,CCCCCCCC/C=C\CCCCCCCC(=O)NC(C)(C)CC(=O)Nc1cncc(C(=O)O)c1N
14,54%,CC(C)(CC(=O)Nc1cncc(C(=O)O)c1N)NC(=O)C1(c2ccccc2)CC1
15,60%,CC(C)CC(=O)NC(C)(C)CC(=O)Nc1cncc(C(=O)O)c1N
16,52%,CC(C)(CC(=O)Nc1cncc(C(=O)O)c1N)NC(=O)C[C@H]1CCNC1
17,56%,CC(C)(CC(=O)Nc1cncc(C(=O)O)c1N)NC(=O)C1CCNCC1
18,50%,CCCCCCCCCCCC(=O)NC(C)(C)CC(=O)Nc1cncc(C(=O)O)c1N
19,54%,CC(C)(CC(=O)Nc1cncc(C(=O)O)c1N)NC(=O)CC[C@@H](N)Cc1ccccc1
20,64%,CC(C)(C)CC(=O)NC(C)(C)CC(=O)Nc1cncc(C(=O)O)c1N

row,Efficacy,Compound
1,92%,CC(C)(CC(=O)Nc1cncc(C(=O)O)c1N)NC(=O)[C@@H](NC(=O)[C@@H](N)C1CCCCC1)C1CCCCC1
2,73%,CC(C)(CC(=O)Nc1cncc(C(=O)O)c1N)NC(=O)c1cccc2c1CCCC2
3,65%,CC(C)(CC(=O)Nc1cncc(C(=O)O)c1N)NC(=O)CCC1CCCCC1
4,57%,CCCCCCCC(=O)NC(C)(C)CC(=O)Nc1cncc(C(=O)O)c1N
5,57%,CC(C)(CC(=O)Nc1cncc(C(=O)O)c1N)NC(=O)[C@@H]1CCC[C@H](N)C1
6,59%,CCCCCCC(=O)NC(C)(C)CC(=O)Nc1cncc(C(=O)O)c1N
7,54%,CC(C)C(=O)NC(C)(C)CC(=O)Nc1cncc(C(=O)O)c1N
8,58%,CC(C)(CC(=O)Nc1cncc(C(=O)O)c1N)NC(=O)C(C)(C)C
9,58%,CC(C)(CC(=O)Nc1cncc(C(=O)O)c1N)NC(=O)[C@H]1CC[C@@H](N)CC1
10,56%,CC(C)(CC(=O)Nc1cncc(C(=O)O)c1N)NC(=O)c1ccc(N)cc1
11,65%,CCCCCC(=O)NC(C)(C)CC(=O)Nc1cncc(C(=O)O)c1N
12,76%,CC[C@H](C)[C@H](NC(=O)[C@@H](N)C1CCCCC1)C(=O)NC(C)(C)CC(=O)Nc1cncc(C(=O)O)c1N
13,85%,CC(C)C[C@H](NC(=O)[C@@H](NC(=O)OC(C)(C)C)C1CCCCC1)C(=O)NC(C)(C)CC(=O)Nc1cncc(C(=O)O)c1N
14,55%,CC(C)(CC(=O)Nc1cncc(C(=O)O)c1N)NC(=O)C1CCNC1 (centres undefined)
15,56%,CC(C)(CC(=O)Nc1cncc(C(=O)O)c1N)NC(=O)C[C@@H]1CCNC1
16,84%,CC[C@H](C)[C@H](NC(=O)[C@@H](NC(=O)OC(C)(C)C)C1CCCCC1)C(=O)NC(C)(C)CC(=O)Nc1cncc(C(=O)O)c1N
17,57%,CC(C)(CC(=O)Nc1cncc(C(=O)O)c1N)NC(=O)[C@@H](N)CC1CCCCC1
18,59%,CC(C)(CC(=O)Nc1cncc(C(=O)O)c1N)NC(=O)C1(N)CCCCC1
19,50%,CC(C)(CC(=O)Nc1cncc(C(=O)O)c1N)NC(=O)c1ccccc1
